Measured values reported in paper PMC6293271, “Bactericidal/Permeability-Increasing Protein Is an Enhancer of Bacterial Lipoprotein Recognition” (Frontiers in Immunology, 2018).
Ends that are not written are not given here. * marks the point of attachment. Palmitoyl = CCCCCCCCCCCCCCCC(=O)*

Columns and labels:
rBPI [1] = tested on: T1, rBPI; experiment: BPI microtiter binding assay, LPS biotin-coated plates; set-up: species or system human; details: ligand pre-incubated with 20 nM rBPI
T1 construct: the human BPI (aa 32-487) and a C-terminal FLAG Tag; HA signal peptide (N); made in house; host or cells: HEK293T
Description: BPI binding assays were performed using a protocol published for LBP ([9]) with some modifications. Streptavidin-coated 96-well plates (Nunc^TM Immobilizer^TM Streptavidin F96 clear, Thermo Fisher Scientific, Waltham, MA, USA) were coated with LPS biotin (2 μg/ml) or Pam2CSK4 biotin (1 μg/ml) in PBS overnight at 23°C with gentle agitation. After washing with assay buffer (150 mM NaCl, 50 mM HEPES, Sigma Aldrich, Taufkirchen, Germany) containing 0.01% Casein, plates were blocked with 10 g/l BSA (Sigma Aldrich, Taufkirchen, Germany) at 37°C and washed again. Thereafter, ligands were preincubated with 20 nM BPI in assay buffer containing 1 g/l BSA for 30 min and loaded onto the plates. In case of bacterial lysates, 0.05% Tween 20 was added for preincubation. After incubation for 1 h at 37°C, three washing steps were performed. Bound BPI was detected by murine anti-human BPI monoclonal antibody (Cat.-No. HM2042, Hycult Biotech, Uden, Netherlands) and HRP-conjugated rabbit anti-mouse IgG (Cat.-No. 315-035-048, Dianova, Hamburg, Germany). TMB (BD OptEIA^TM TMB Substrate Reagent Set, BD Biosciences, Heidelberg, Germany) was used as a substrate for peroxidase. After addition of 1 N HCl, absorbance was measured at 450 nm. Technical replicates were performed at least two times using exactly the same reagents and are not indicated for the BPI microtiter binding assay. Biological replicates shown here are experiments independently performed by using separately formulated solutions of the reagents.

rBPI [2] = tested on: T1, rBPI; experiment: NanoDSF thermal stability of rBPI with ligand; type: binding, human; details: 5 μM rBPI, 30 μM ligand, PBS pH 7.4
Description: For thermal unfolding experiments, rBPI protein was diluted to a final concentration of 5 μM in PBS pH 7.4, either containing a ligand at 30 μM concentration [(R)-Pam3CSK4, (R)-FSL-1 or LPS EC] or in the absence of a ligand. For each condition, 10 μl of sample per capillary were prepared. The samples were loaded into UV capillaries and experiments were carried out using the Prometheus NT.48 (NanoTemper Technologies, Munich, Germany). The temperature gradient was set to an increase of 1°C/min with a range from 20 to 90°C. Protein unfolding was measured by detecting the temperature-dependent change in tryptophan fluorescence at emission wavelength of 350 nm (Figure 3E, upper panel). Melting temperature (Tm) was determined by detecting the maximum of the first derivative of the fluorescence wavelength 350 nm. For this purpose, an 8th order polynomial fit was calculated for the transition region (Figure 3E, lower panel). Next, the first derivative of the fit was formed and the peak position (at Tm) was determined. Finally, Tm shift (Tm protein alone — Tm protein with ligand) upon addition of ligand to the protein (in°C) was calculated. Technical and biological replicates were defined as described for BPI microtiter binding assays.

BPIN(A) = biological target: T2, BPIN(A) (Homo sapiens, UniProt P17213); experiment: MicroScale Thermophoresis (MST) binding assay with neutrophil BPI; details: 25°C
T2 construct: Bactericidal/permeability-increasing protein (BPI) extracted from neutrophils; purchased Athens Research and Technology; host or cells: neutrophils
T2 sequence (P17213 32-487): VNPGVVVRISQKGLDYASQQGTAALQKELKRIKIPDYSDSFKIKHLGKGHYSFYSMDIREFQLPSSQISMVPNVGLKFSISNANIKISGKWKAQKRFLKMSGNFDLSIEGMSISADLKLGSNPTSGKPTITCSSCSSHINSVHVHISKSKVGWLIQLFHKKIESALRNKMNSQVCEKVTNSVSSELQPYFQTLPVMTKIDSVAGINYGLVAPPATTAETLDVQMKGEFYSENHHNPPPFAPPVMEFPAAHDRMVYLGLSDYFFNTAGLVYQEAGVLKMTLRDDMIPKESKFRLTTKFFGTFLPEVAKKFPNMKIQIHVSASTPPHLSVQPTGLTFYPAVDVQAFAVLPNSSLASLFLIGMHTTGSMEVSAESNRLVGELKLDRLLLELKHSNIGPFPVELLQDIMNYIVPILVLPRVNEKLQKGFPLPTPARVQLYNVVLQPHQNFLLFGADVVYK
Description: BPIN(A) and rBPI were labeled with NT647 in PBS pH 7.4 (Monolith NT™ Protein Labeling Kit RED—NHS, NanoTemper Technologies, Munich, Germany). Concentration of labeled protein was determined using the NanoDrop (ThermoScientific, Wilmington, NC, USA) and Bradford assay (Promega, Mannheim, Germany). MicroScale Thermophoresis (MST) binding experiments were carried out with 5 nM labeled protein in binding buffer (10 mM HEPES pH 7.4, 150 mM NaCl, 0.1% Tween) with 0.05–1,679 nM of LPS EC or 0.196–6,436 nM of Pam3CSK4 or 0.61–20,000 nM of LTA SAΔlgt and LTA SPΔlgt or of >0.61–20,000 nM WTA SPΔlgt at 20–40% MST power, 20% LED power in premium capillaries on a Monolith NT.115 pico device at 25°C (NanoTemper Technologies, Munich, Germany). For MST binding assays based on Pam3CSK4 Fluorescein, 20 nM of the fluorescent molecule in binding buffer (10 mM HEPES pH 7.4, 150 mM NaCl, 0.1% Tween) was supplied with 0.018–600 nM BPIN(A) and measured at 40% MST power, 10% LED power in premium capillaries on a Monolith NT.115 pico device at 25°C (NanoTemper Technologies, Munich, Germany).
MST timetraces were recorded and the temperature jump or, respectively, thermophoresis was analyzed. The recorded fluorescence was plotted against the ligand concentration and curve fitting was performed with KaleidaGraph 4.5 using the dissocation constant (KD) fit formula derived from the law of mass action. […]

TLR2 = tested on: TLR2; set-up: method as in PMID 15193414; details: cited from earlier work

## CCCCCCCCCCCCCCCC(=O)OCC(CO)OC(=O)CCCCCCCCCCCCCCC (stereo not shown) [DAG, Diacyl-glycerol 16:0]
rBPI [1]
  inhibition of binding of rBPI to LPS biotin-coated wells: no inhibitory binding

## (R)-Pam2CSK4: di-acylated lipopeptide; acyl-chain deleted at the amino-terminal cysteine of the residual peptide (CSKKKK; di-acylated: diacyl-thioglycerol motif on the cysteine; no acyl-chain at the amino-terminal cysteine of the residual peptide)
rBPI [1]
  inhibition of binding of rBPI to LPS biotin-coated wells: lower inhibitory potential
rBPI [2]
  change in melting temperature (Tm) of rBPI: decrease in Tm

## Pam3CSK4 Fluorescein: Pam3CSK4, covalently labeled with fluorescein (CSKKKK)
BPIN(A); 20 nM Pam3CSK4 Fluorescein incubated with increasing concentrations of unlabeled BPIN(A)
  Kd: 0.0203 µM

## Pam3CSK4: tri-acylated lipopeptide; racemate of (R)-Pam3CSK4 and (S)-Pam3CSK4 (Palmitoyl-CSKKKK; not fully specified (residue 1); also: racemate of (R) and (S) forms at the glycerol centre)
rBPI [1]
  inhibition of binding of rBPI to LPS biotin-coated wells: inhibited binding of rBPI to LPS in a dose-dependent manner
BPIN(A); BPIN(A) NT647 (5 nM) incubated with increasing concentrations of ligand
  Kd: 0.0667 µM

## Pam 2^* CSK4: di-acylated lipopeptide; acyl-chain deleted at the O-2-position of the thioglycerol core (CSKKKK; also: di-acylated lipopeptide, acyl chain deleted at O-2 of thioglycerol core)
rBPI [1]
  inhibition of binding of rBPI to LPS biotin-coated wells: lower inhibitory potential
TLR2
  TLR2-stimulatory potential: lack TLR2-stimulatory potential

## PamCSK4: mono-acylated lipopeptide; glycerol-core with two fatty acids deleted, peptide with only one fatty acid (Palmitoyl-CSKKKK)
rBPI [1]
  inhibition of binding of rBPI to LPS biotin-coated wells: not enough to completely block the inhibitory potential
TLR2
  TLR2-stimulatory potential: lack TLR2-stimulatory potential
